The structures appear in SMILES notation.

The results in this text go back to US6951881B2, “(1-substituted-indol-3-yl) alkylidenehydrazinecarboximidamide derivatives as 5-hydroxytryptamine-6 ligands” (Wyeth, priority 2002, dated 2005).

In one test the target is T1, human cloned 5-HT6 receptors (Homo sapiens, UniProt P50406).
T1 construct: expressed in transfected cells; host or cells: HeLa cells
T1 sequence (P50406 whole entry): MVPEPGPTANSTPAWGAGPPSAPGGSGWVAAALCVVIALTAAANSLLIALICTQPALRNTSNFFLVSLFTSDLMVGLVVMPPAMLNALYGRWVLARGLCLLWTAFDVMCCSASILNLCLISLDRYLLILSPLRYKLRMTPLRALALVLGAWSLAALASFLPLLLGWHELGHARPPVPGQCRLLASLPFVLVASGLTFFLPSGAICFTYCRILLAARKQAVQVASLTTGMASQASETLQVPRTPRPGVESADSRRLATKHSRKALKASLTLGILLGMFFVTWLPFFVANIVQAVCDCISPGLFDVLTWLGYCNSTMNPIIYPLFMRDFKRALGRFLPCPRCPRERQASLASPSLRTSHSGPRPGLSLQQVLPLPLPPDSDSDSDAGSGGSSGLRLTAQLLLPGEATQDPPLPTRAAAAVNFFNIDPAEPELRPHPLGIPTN
The format is binding. Conditions: [3H]-LSD 3.0 nM, Hela cell membranes; read-out: 5-HT6 Binding Ki. As for the experimental part:
This operation is repeated.
The reaction is allowed to proceed in the dark for 120 min at room temperature, at which time, the bound ligand-receptor complex is filtered off on a 96 well unifilter with a Packard Filtermate® 196 Harvester. The bound complex caught on the filter disk is allowed to air dry and the radioactivity is measured in a Packard TopCount® equipped with six photomultiplier detectors, after the addition of 40.0 μl Microscint®-20 scintillant to each shallow well. The unifilter plate is heat-sealed and counted in a PackardTopCount® with a tritium efficiency of 31.0%.
Specific binding to the 5-HT6 receptor is defined as the total radioactivity bound less the amount bound in the presence of 10.0 μM unlabeled methiothepin. Binding in the presence of varying concentrations of test compound is expressed as a percentage of specific binding in the absence of test compound. The results are plotted as logit % bound versus log concentration of test compound. Nonlinear regression analysis of data points with a computer assisted program Prism® yields both the IC50 and the Ki values of test compounds with 95% confidence limits.
The amount of displacement by the test compound is given in percent (%) inhibition and is derived from the following equation: [formula] where B0 is the amount of CPM bound in the presence of the testing agent. NSB represents the CPM bound in the presence of a saturating concentration of a displacer and TB represents the total amount of CPM bound at zero (0) concentration of test compound.
Alternatively, a linear regression line of decline of data points is plotted, from which the IC50 value can be read off and the Ki value determined by solving the following equation: [formula] where L is the concentration of the radioactive ligand used and KD is the dissociation constant of the ligand for the receptor, both expressed in nM.
In the case of `N=C(N)NN=Cc1c(-c2ccc3ccccc3c2)[nH]c2ccccc12` [Example 51, 2-{[2-(naphthalen-2-yl)-1H-indol-3-yl]methylene}hydrazinecarboximidamide], the Ki (as a rule, the dissociation constant of the complex between target and ligand, obtained from inhibition or displacement) came to 109 nM. In the case of `N=C(N)NN=Cc1c(-c2ccc(F)cc2)[nH]c2ccccc12` [Example 52, 2-[2-(4-fluorophenyl)-1H-indol-3-ylmethylene]hydrazinecarboximidamide], the Ki came out at 29 nM. Still for that read-out and setting: in the case of `CC(=NNC(=N)N)c1c(-c2ccc(Cl)cc2)[nH]c2ccccc12` [Example 64, 2-{1-[2-(4-chloro-phenyl)-1H-indol-3-yl]-ethylidene}hydrazinecarboximidamide] it was 17 nM.

Staying with this test, now noted: test compound dose 10 nM; displacement of [3H]-LSD.
Take `CC(=NNC(=N)N)c1c(-c2ccc(F)cc2)[nH]c2ccccc12` [Example 74, 2-{1-[2-(4-fluoro-phenyl)-1H-indol-3-yl]-ethylidene}hydrazinecarboximidamide]: the inhibition – broadly, the percentage by which the read-out fell short of the control – at 0.01 µM amounted to 38.3%.

Staying with this test, now noted: test compound dose 1000 nM; displacement of [3H]-LSD.
For the compound `N=C(N)NN=Cc1c(-c2ccc(F)c(Cl)c2)[nH]c2ccccc12` [Example 48, 2-[2-(3-chloro-4-fluoro-phenyl)-1H-indol-3-ylmethylene]hydrazinecarboximidamide], the inhibition at 1 µM turned out to be 88.6%.

The compound `CN(N=Cc1c(-c2ccc(F)c(Cl)c2)[nH]c2ccccc12)C1=NCCN1` [Example 49, N′-[2-(3-chloro-4-fluoro-phenyl)-1H-indol-3-ylmethylene]-N-(4,5-dihydro-1H-imidazol-2-yl)-N-methylhydrazine] returned an inhibition at 1 µM of 93.8%. For `CN(N=Cc1c(-c2ccccc2)[nH]c2ccccc12)C1=NCCN1` [Example 50, N-(4,5-dihydro-1H-imidazol-2-yl)-N′-(2-phenyl-1H-indol-3-ylmethylene)-N-methylhydrazine], the inhibition at 1 µM was found to be 96.2%. The same measure, in the same setting: in the case of `N=C(N)NN=C(Cc1ccc(Cl)cc1)c1c(-c2ccc(Cl)cc2)[nH]c2ccccc12` [Example 53, 2-{1-[2-(4-chloro-phenyl)-1H-indol-3-yl]-2-(4-chloro-phenyl)-ethylidene}hydrazinecarboximidamide] it was 33.7%. The same measure, in the same setting: in the case of `N=C(N)NN=C(c1c(-c2ccccc2)[nH]c2ccccc12)C1CCCCC1` [Example 54, 2-[cyclohexyl-(2-phenyl-1H-indol-3-yl)-methylene]hydrazinecarboximidamide] it was 27%. The same measure, in the same setting: in the case of `N=C(N)NN=C(c1c(-c2ccc(Cl)cc2)[nH]c2ccccc12)C1CCCCC1` [Example 55, 2-{[2-(4-chloro-phenyl)-1H-indol-3-yl]-cyclohexyl-methylene}hydrazinecarboximidamide] it was 28.5%; in that of `N=C(N)NN=C(c1c(-c2ccc(F)c(Cl)c2)[nH]c2ccccc12)C1CCCCC1` [Example 56, 2-{[2-(3-chloro-4-fluoro-phenyl)-1H-indol-3-yl]-cyclohexyl-methylene}hydrazinecarboximidamide], 33.9%. In the case of `CC(C)C(=NNC(=N)N)c1c(-c2ccc(Cl)cc2)[nH]c2ccccc12` [Example 57, 2-{[2-(4-chloro-phenyl)-1H-indol-3-yl]-2-methyl-propylidene}hydrazinecarboximidamide], the % Inhibition – broadly, the percentage by which the read-out fell short of the control – is given as 74.6%. `N=C(N)NN=C(Cc1ccccc1)c1c(-c2ccccc2)[nH]c2ccccc12` [Example 59, 2-[2-phenyl-1-(2-phenyl-1H-indol-3-yl)-ethylidene]hydrazinecarboximidamide] yielded an inhibition at 1 µM of 24.4%. `N=C(N)NN=C(Cc1ccccc1)c1c(-c2ccc(Cl)cc2)[nH]c2ccccc12` [Example 60, 2-{1-[2-(4-chloro-phenyl)-1H-indol-3-yl]-2-phenyl-ethylidene}hydrazinecarboximidamide] showed an inhibition at 1 µM of 49.5%. Same read-out and setting: the same measure for `N=C(N)NN=C(Cc1ccccc1)c1c(-c2ccc(F)c(Cl)c2)[nH]c2ccccc12` [Example 61, 2-{1-[2-(3-chloro-4-fluoro-phenyl)-1H-indol-3-yl]-2-phenyl-ethylidene}hydrazinecarboximidamide]: 83.9%; for `CC(C)CC(=NNC(=N)N)c1c(-c2ccc(Cl)cc2)[nH]c2ccccc12` [Example 62, 2-{1-[2-(4-chloro-phenyl)-1H-indol-3-yl]-3-methyl-butylidene}hydrazinecarboximidamide]: 78.2%; for `N=C(N)NN=C(C=Cc1ccccc1Cl)c1c(-c2ccc(Cl)cc2)[nH]c2ccccc12` [Example 63, 2-{3-(2-chloro-phenyl)-1-[2-(4-chloro-phenyl)-1H-indol-3-yl]-allylidene}hydrazinecarboximidamide]: 31.7%. On the same count and under the same terms, in the case of `CC(=NNC(=N)N)c1c(-c2ccc(Cl)cc2)[nH]c2ccccc12` [Example 64, 2-{1-[2-(4-chloro-phenyl)-1H-indol-3-yl]-ethylidene}hydrazinecarboximidamide] it was 98.5%. Still for that read-out and setting: the same measure for `CC(=NNC(=N)N)c1c(-c2ccc(F)c(Cl)c2)[nH]c2ccccc12` [Example 65, 2-{1-[2-(3-chloro-4-fluoro-phenyl)-1H-indol-3-yl]-ethylidene}hydrazinecarboximidamide]: 87.2%. As for `CN(N=C(c1ccc(Cl)cc1)c1c(-c2ccccc2)[nH]c2ccccc12)C1=NCCN1` [Example 66, N′-[(4-chlorophenyl)-(2-phenyl-1H-indol-3-yl)-methylene]-N-(4,5,-dihydro-1H-imidazol-2-yl)-N-methylhydrazine], the “% Inhibition” value is given as 18.1%. On the same count and under the same terms, in the case of `CN(N=C(c1ccc(Cl)cc1)c1c(-c2ccc(Cl)cc2)[nH]c2ccccc12)C1=NCCN1` [Example 67, N′-{(4-chlorophenyl)-[2-(4-chlorophenyl)-1H-indol-3-yl]-methylene}-N-(4,5,-dihydro-1H-imidazol-2-yl)-N-methylhydrazine] it was 35.2%. The compound `CC(C)=CC(=NN(C)C1=NCCN1)c1c(-c2ccccc2)[nH]c2ccccc12` [Example 68, N-(4,5-dihydro-1H-imidazol-2-yl)-N-methyl-N′-[3-methyl-1-(2-phenyl-1H-indol-3-yl)-but-2-enylidene]hydrazine] showed an inhibition at 1 µM of 24.8%. Still for that read-out and setting: the same measure for `CN(N=C(CCc1ccccc1)c1c(-c2ccccc2)[nH]c2ccccc12)C1=NCCN1` [Example 69, N-(4,5-dihydro-1H-imidazol-2-yl)-N-methyl-N′-[3-phenyl-1-(2-phenyl-1H-indol-3-yl)-propylidene]hydrazine]: 23%. On the same count and under the same terms, in the case of `CN(N=C(CCc1ccccc1)c1c(-c2ccc(Cl)cc2)[nH]c2ccccc12)C1=NCCN1` [Example 70, N′-{1-[2-(4-chloro-phenyl)-1H-indol-3-yl]-3-phenyl-propylidene}-N-(4,5-dihydro-1H-imidazol-2-yl)-N-methylhydrazine] it was 33.9%; in that of `CN(N=C(C=Cc1ccccc1)c1c(-c2ccccc2)[nH]c2ccccc12)C1=NCCN1` [Example 71, N-(4,5-dihydro-1H-imidazol-2-yl)-N-methyl-N′-[3-phenyl-1-(2-phenyl-1H-indol-3-yl)-allylidene]hydrazine], 30%. The same measure, in the same setting: in the case of `CN(N=C(C=Cc1ccccc1)c1c(-c2ccc(Cl)cc2)[nH]c2ccccc12)C1=NCCN1` [Example 72, N′-{1-[2-(4-chloro-phenyl)-1H-indol-3-yl]-3-phenyl-allylidene}-N-(4,5-dihydro-1H-imidazol-2-yl)-N-methylhydrazine] it was 40.9%. The compound `CN(N=C(Cc1ccc(Cl)cc1)c1c(-c2ccc(Cl)cc2)[nH]c2ccccc12)C1=NCCN1` [Example 73, N′-{2-(4-chloro-phenyl)-1-[2-(4-chloro-phenyl)-1H-indol-3-yl]-ethylidene}-N-(4,5-dihydro-1H-imidazol-2-yl)-N-methylhydrazine] yielded an inhibition at 1 µM of 37.5%.

In turn, `CC(=NNC(=N)N)c1c(-c2ccc(F)c(F)c2)[nH]c2ccccc12` [Example 75, 2-{1-[2-(3,4-difluoro-phenyl)-1H-indol-3-yl]-ethylidene}hydrazinecarboximidamide] showed an inhibition at 1 µM of 73.2%. As to `CC(=NNC(=N)N)c1c(-c2ccccc2)n(CCc2ccccc2)c2ccccc12` [Example 78, 2-{[1-(2-Phenethyl)-2-phenyl-1H-indol-3-yl]ethylidene}hydrazine-carboximidamide], the “% Inhibition” value is listed as 84.2%. As to `Cn1c(-c2ccccc2)c(C(=NNC(=N)N)C2CCCCC2)c2ccccc21` [Example 79, 2-[cyclohexyl-(1-methyl-2-phenyl-1H-indol-3-yl)-methylene]hydrazinecarboximidamide], testing at 1 µM gave an inhibition of 31.3%. Still for that read-out and setting: the same measure for `N=C(N)NN=C(c1c(-c2ccccc2)n(-c2ccccc2)c2ccccc12)C1CCCCC1` [Example 80, 2-[cyclohexyl-(1,2-diphenyl-1H-indol-3-yl)-methylene]hydrazinecarboximidamide]: 8.7%; for `CC(C)C(=NNC(=N)N)c1c(-c2ccccc2)n(C)c2ccccc12` [Example 81, 2-[1-(1-methyl-2-phenyl-1H-indol-3-yl)-2-methyl-propylidene]hydrazinecarboximidamide]: 43.2%. Turning to `CC(C)C(=NNC(=N)N)c1c(-c2ccccc2)n(-c2ccccc2)c2ccccc12` [Example 82, 2-[1-(1,2-diphenyl-1H-indol-3-yl)-2-methyl-propylidene]hydrazinecarboximidamide], the inhibition at 1 µM came to 21.5%.
